ChEMBL document CHEMBL3627644, “2-Arylquinazolin-4(3H)-ones: A new class of α-glucosidase inhibitors” (Bioorg Med Chem, 2015)

Assays:
[1] = Inhibition of Saccharomyces cerevisiae alpha-glucosidase for 15 mins by multiplate reader method using 0.7 mM p-nitrophenyl-alpha-D-glucopyranoside as substrate
[2] = Competitive inhibition of Saccharomyces cerevisiae alpha-glucosidase by multiplate reader method using p-nitrophenyl-alpha-D-glucopyranoside as substrate
[3] = Mixed inhibition of Saccharomyces cerevisiae alpha-glucosidase by multiplate reader method using p-nitrophenyl-alpha-D-glucopyranoside as substrate
[4] = Non-Competitive inhibition of Saccharomyces cerevisiae alpha-glucosidase by multiplate reader method using p-nitrophenyl-alpha-D-glucopyranoside as substrate

| Compound | IC50 ([1]; read-out: IC50) [nM] | other results |
| --- | --- | --- |
| O=c1[nH]c(-c2ccc([N+](=O)[O-])cc2)nc2ccccc12 | 20000 | IC50 [1]: Not Active |
| CN(C)c1ccc(-c2nc(O)c3ccccc3n2)cc1 | 2750 | – |
| COc1ccc(-c2nc(O)c3ccccc3n2)cc1OC | 860 | Ki [2]: 283 nM |
| O=c1[nH]c(-c2ccccc2O)nc2ccccc12 | 10400 | – |
| O=c1[nH]c(-c2ccc(O)cc2)nc2ccccc12 | 10500 | – |
| Cc1ccc(-c2nc3ccccc3c(=O)[nH]2)cc1 | 76000 | – |
| O=c1[nH]c(-c2cccc(O)c2)nc2ccccc12 | – | IC50 [1]: Not Active |
| O=c1[nH]c(-c2cccc([N+](=O)[O-])c2)nc2ccccc12 | 18000 | – |
| COc1ccc(-c2nc3ccccc3c(=O)[nH]2)cc1O | 1900 | – |
| O=c1[nH]c(-c2c(Cl)cccc2Cl)nc2ccccc12 | 68100 | – |
| COc1cc(-c2nc3ccccc3c(=O)[nH]2)cc(OC)c1OC | 118000 | – |
| CCOc1cc(-c2nc3ccccc3c(=O)[nH]2)ccc1O | 300 | Ki [2]: 430 nM |
| O=c1[nH]c(-c2ccc(O)c(O)c2)nc2ccccc12 | 1500 | – |
| O=c1[nH]c(-c2cc(O)ccc2O)nc2ccccc12 | 2350 | – |
| COc1cccc(-c2nc3ccccc3c(=O)[nH]2)c1O | 14600 | – |
| CCOc1ccccc1-c1nc2ccccc2c(=O)[nH]1 | 570 | Ki [3]: 6600 nM |
| COc1ccc(O)c(-c2nc3ccccc3c(=O)[nH]2)c1 | 1150 | – |
| O=c1[nH]c(-c2ccccc2Cl)nc2ccccc12 | 1300 | – |
| O=c1[nH]c(-c2c(O)cccc2Br)nc2ccccc12 | 9730 | – |
| CCOc1ccc(-c2nc3ccccc3c(=O)[nH]2)cc1 | 3250 | – |
| COc1ccc(-c2nc(O)c3ccccc3n2)cc1 | 400 | Ki [4]: 250 nM |
| O=c1[nH]c(-c2cc(Cl)ccc2Cl)nc2ccccc12 | 16200 | – |
| C[C@H]1O[C@H](O[C@H]2[C@H](O)[C@@H](O)[C@@H](O[C@H]3[C@H](O)[C@@H](O)C(O)O[C@@H]3CO)O[C@@H]2CO)[C@H](O)[C@@H](O)[C@@H]1N[C@H]1C=C(CO)[C@@H](O)[C@H](O)[C@H]1O (stereo partly drawn) [ACARBOSE] | – | Ki [2]: 736000 nM |
